In US20250051724A1, “MEDIUM COMPOSITION FOR CULTURING PORCINE PLURIPOTENT STEM CELLS” (SPACE F CORPORATION, priority 2022, published 2025):

What was measured:
Assay type in all cases: cell-based
[1] = system: porcine embryonic stem cells
[2] = system: porcine embryonic stem cells; settings: for proportion of cells undergoing cell division / proliferation rate as the concentration increased (Ki-67): various concentrations in LDN-193189-containing medium
[3] = system: porcine embryonic stem cells; remark: listed apart in the source
Experimental: To analyze the effect of LDN-193189, which is an ALK2/3 inhibitor, on feeder cell-free culture of porcine embryonic stem cells, LDN-193189 cytotoxicity was confirmed through annexin V staining (FIG. 1). […] In addition, treatment at a concentration of 1000 nM or more for 24 hours or more induced apoptosis of most cells.
To confirm the optimal concentration of “FF-embryonic stem cell culture medium” containing LDN-193189 from 100 nM to 1000 nM, the concentration was subdivided and annexin V staining was performed (FIG. 3A). […] In fact, LDN-193189 is known to inhibit the activin A signaling system involved in stem cell proliferation at high concentrations.

[4] = system: porcine embryonic stem cells; assay: qPCR analysis in culture medium containing FBS; settings: environment containing FBS
[5] = system: porcine embryonic stem cells; assay: qPCR gene expression analysis in feeder cell-free culture; settings: LDN-193189 250 nM, cultured without feeder cells
Experimental: To analyze the expression level of pluripotency-related genes, differentiation-related genes, and the like depending on the culture period, porcine embryonic stem cells were cultured using “FF-embryonic stem cell culture medium” containing 100 nM LDN-193189 (ff-ESCs^LDN+) and “FF-embryonic stem cell culture medium” not containing LDN-193189 (ff-ESCs^LDN−), without feeder cells, and porcine embryonic stem cells were cultured as a control using the aforementioned embryonic stem cell culture medium along with feeder cells (control ESCs).
The cells were obtained on days 2, 4 and 6 after plating using each medium. Total RNA was extracted using TRIzol reagent (Invitrogen, Carlsbad, USA) and cDNA was synthesized using High-Capacity RNA-to-cDNA Kit (Applied Biosystems, Foster City, USA). cDNA was amplified using the DyNAmo HS SYBR Green qPCR kit (Thermo Fisher Scientific, Waltham, USA) with the primer sets listed in Table 1.
In addition, as shown in C and D of FIG. 2, the effect of treatment with LDN-193189 (250 nM), which is an inhibitor of the SMAD1/5 signaling system, on feeder cell-free culture of porcine embryonic stem cells was confirmed.

[6] = system: porcine embryonic stem cells grown on feeder cells; assay: pluripotency marker staining of cells grown on feeder cells
Text: The effect of medium for feeder cell-free culture containing LDN-193189 on porcine embryonic stem cells grown on feeder cells was confirmed.

[7] = system: porcine embryonic stem cells grown on feeder cells; assay: qPCR analysis of cells grown on feeder cells
Text: Treatment with LDN-193189 reduced the spontaneous differentiation of porcine embryonic stem cells grown on feeder cells and enhanced the expression of the SSEA4 marker. This is presumed to be because it suppresses the SMAD1/5 signaling system involved in mesodermal differentiation and activates the SMAD2/3 signaling involved in the proliferation of stem cells. In addition, qPCR analysis confirmed that treatment with LDN-193189 reduced the expression of genes involved in the development of various mesodermal tissues.

[8] = system: porcine embryonic stem cells; assay: immunological staining of NANOG and SSEA4 in culture medium containing FBS; settings: culture medium in which KSR was replaced with FBS
Text: In addition, it was confirmed whether the substance helps maintain the pluripotency of porcine embryonic stem cells in a culture medium containing fetal bovine serum (FBS), rather than a serum replacement.
As a result of confirming the pluripotency markers NANOG and SSEA4 through immunological staining, the culture medium containing FBS induced differentiation of porcine embryonic stem cells, and many cell colonies with reduced expression of NANOG and SSEA4 were discovered.

FGF2: fibroblast growth factor 2 (hrFGF2, R&D Systems)
concentration at which cell activity decreased due to cytotoxicity (WST-8) [1]: ≥ 100 ng/mL | proportion of cells undergoing cell division / proliferation rate as the concentration increased (Ki-67) [2]: gradually increased

Cc1c[nH]c(-c2cnc(NCCNc3ccc(C#N)cn3)nc2-c2ccc(Cl)cc2Cl)n1 [CHIR99021]
proportion of cells undergoing cell division / proliferation rate as the concentration increased (Ki-67) [2]: gradually decreased

c1ccc2c(-c3cnn4cc(-c5ccc(N6CCNCC6)cc5)cnc34)ccnc2c1 [LDN-193189]
concentration with high cytotoxicity (annexin V staining) [3]: ≥ 1000 nM | expression of mesoderm-related genes (qPCR) [4]: reduced | expression of genes involved in pluripotency and mesodermal tissue development [5]: restored to the level when cultured on the feeder cells | final treatment concentration (maximum concentration that inhibits only the BMP signaling system and does not cause cytotoxicity) [1]: 100 nM | expression of the SSEA4 marker [6]: enhanced | spontaneous differentiation [6]: reduced | Ki-67 staining result ([2]; from 100 nM to 1000 nM): no significant difference | expression of genes involved in the development of mesodermal tissues (qPCR) [7]: reduced | FBS-induced differentiation (colonies with reduced expression of NANOG and SSEA4) [8]: alleviated

O=C(Nc1cccc2cccnc12)c1ccc(N2C(=O)[C@@H]3[C@H](C2=O)[C@@H]2C=C[C@H]3C2)cc1 [IWR-1]
cytotoxicity [1]: showed cytotoxicity at high concentrations | concentration showing the highest cellular activity ([1]; various concentrations): 0.5 µM | proportion of cells undergoing cell division / proliferation rate as the concentration increased (Ki-67) [2]: gradually increased

activin A: ActA (activin; activin A) (R&D Systems), cytokine in culture medium
concentration at which cell activity decreased due to cytotoxicity (WST-8) [1]: ≥ 10 ng/mL | concentration with decreased proliferation rate (Ki-67) [2]: ≥ 0.01 µg/mL
